Assay results published in patent publication US20160185774A1, “Anti-Infective Compounds” (priority 2013, published 2016).
Converted amounts (≈) assume the structure as drawn.

Tested on: M. tuberculosis
Test: microbe, parasite or virus in culture
Assay type: cell-based
Conditions: Mycobacterium tuberculosis, 120 h; read-out: QUM (MIC80)

| SMILES | MIC80 |
| --- | --- |
| CCc1nc2c(C(F)(F)F)cccn2c1C(=O)NCc1ccc(N2CCC(c3ccc(F)cc3)CC2)cc1 [Compound 78] | 1 to 20 µM (≈ 0.525 to 10.5 µg/mL) |
| CCc1nc2ccc(Br)cn2c1C(=O)NCc1ccc(N2CCC(c3ccc(C)cc3)CC2)cc1 [Compound 79] | < 1 µM |
| CCc1nc2ccc(C(F)(F)F)cn2c1C(=O)NCc1ccc(N2CCN(c3ccccc3)CC2)cc1 [Compound 80] | < 1 µM |
| CCc1nc2cc(C(F)(F)F)ccn2c1C(=O)NCc1ccc(N2CCN(c3ccccc3)CC2)cc1 [Compound 81] | < 1 µM |
| CCc1nc2cc(F)ccn2c1C(=O)NCc1ccc(N2CCN(c3ccc(F)cc3)CC2)cc1 [Compound 82] | < 1 µM |
| CCc1nc2c(C)cccn2c1C(=O)NCc1ccc(N2CCN(c3ccc(F)cc3)CC2)cc1 [Compound 83] | < 1 µM |
| CCc1nc2c(C(F)(F)F)cccn2c1C(=O)NCc1ccc(N2CCN(c3ccccc3)CC2)cc1 [Compound 84] | 1 to 20 µM (≈ 0.508 to 10.2 µg/mL) |
| CCc1nc2c(Cl)cccn2c1C(=O)NCc1ccc(N2CCN(c3ccc(F)cc3)CC2)cc1 [Compound 85] | < 1 µM |
| CCc1nc2cc(C(F)(F)F)ccn2c1C(=O)NCc1ccc(N2CCN(c3ccc(F)cc3)CC2)cc1 [Compound 86] | < 1 µM |
| CCc1nc2ccc(C(F)(F)F)cn2c1C(=O)NCc1ccc(N2CCN(c3ccc(F)cc3)CC2)cc1 [Compound 87] | < 1 µM |
| CCc1nc2c(C(F)(F)F)cccn2c1C(=O)NCc1ccc(N2CCC(c3ccc(C(F)(F)F)cc3)CC2)cc1 [Compound 88] | 1 to 20 µM (≈ 0.575 to 11.5 µg/mL) |
| CCc1nc2c(Br)cccn2c1C(=O)NCc1ccc(N2CCC(c3ccc(OC)cc3)CC2)cc1 [Compound 89] | 1 to 20 µM (≈ 0.547 to 10.9 µg/mL) |
| CCc1nc2cc(F)ccn2c1C(=O)NCc1ccc(N2CCN(c3ccc(Cl)cc3)CC2)cc1 [Compound 90] | < 1 µM |
| CCc1nc2cc(OC)ccn2c1C(=O)NCc1ccc(N2CCC(c3ccc(OC)cc3)CC2)cc1 [Compound 92] | < 1 µM |
| CCc1nc2cc(F)ccn2c1C(=O)NCc1ccc(N2CCN(c3ccc(C)cc3)CC2)cc1 [Compound 93] | < 1 µM |
| CCc1nc2c(Br)cccn2c1C(=O)NCc1ccc(N2CCN(c3ccc(OC(F)(F)F)cc3)CC2)cc1 [Compound 94] | < 1 µM |
| CCc1nc2c(Br)cccn2c1C(=O)NCc1ccc(N2CCN(c3ccc(OC)cc3)CC2)cc1 [Compound 95] | < 1 µM |
| CCc1nc2cc(C(F)(F)F)ccn2c1C(=O)NCc1ccc(N2CCN(c3ccc(OC)cc3)CC2)cc1 [Compound 96] | < 1 µM |
| CCc1nc2c(Br)cccn2c1C(=O)NCc1ccc(N2CCN(c3ccc(C)cc3)CC2)cc1 [Compound 97] | < 1 µM |
| CCc1nc2c(Cl)cccn2c1C(=O)NCc1ccc(N2CCC(c3ccc(OC)cc3)CC2)cc1 [Compound 98] | < 1 µM |
| CCc1nc2c(C(F)(F)F)cccn2c1C(=O)NCc1ccc(N2CCN(c3ccc(C)cc3)CC2)cc1 [Compound 99] | 1 to 20 µM (≈ 0.522 to 10.4 µg/mL) |
| CCc1nc2ccc(OC)cn2c1C(=O)NCc1ccc(N2CCN(c3ccc(C)cc3)CC2)cc1 [Compound 100] | < 1 µM |
| CCc1nc2ccc(Br)cn2c1C(=O)NCc1ccc(N2CCN(c3ccc(C)cc3)CC2)cc1 [Compound 101] | < 1 µM |
| CCc1nc2ccc(C(F)(F)F)cn2c1C(=O)NCc1ccc(N2CCN(c3ccc(C)cc3)CC2)cc1 [Compound 102] | < 1 µM |
| CCc1nc2c(OC)cccn2c1C(=O)NCc1ccc(N2CCN(c3ccc(Cl)cc3)CC2)cc1 [Compound 103] | 1 to 20 µM (≈ 0.504 to 10.1 µg/mL) |

| SMILES | MIC80 |
| --- | --- |
| CCc1nc2c(OC)cccn2c1C(=O)NCc1ccc(N2CCN(c3ccc(C)cc3)CC2)cc1 [Compound 104] | 1 to 20 µM (≈ 0.484 to 9.67 µg/mL) |
| CCc1nc2c(C(F)(F)F)cccn2c1C(=O)NCc1ccc(N2CCN(c3ccc(OC)cc3)CC2)cc1 [Compound 105] | 1 to 20 µM (≈ 0.538 to 10.8 µg/mL) |
| CCc1nc2cc(C(F)(F)F)ccn2c1C(=O)NCc1ccc(N2CCN(c3ccc(C)cc3)CC2)cc1 [Compound 106] | < 1 µM |
| CCc1nc2ccc(OC)cn2c1C(=O)NCc1ccc(N2CCN(c3ccc(OC(F)(F)F)cc3)CC2)cc1 [Compound 107] | < 1 µM |
| CCc1nc2cc(OC)ccn2c1C(=O)NCc1ccc(N2CCN(c3ccc(C)cc3)CC2)cc1 [Compound 108] | < 1 µM |
| CCc1nc2ccc(C(F)(F)F)cn2c1C(=O)NCc1ccc(N2CCN(c3ccc(OC)cc3)CC2)cc1 [Compound 109] | < 1 µM |
| CCc1nc2cc(OC)ccn2c1C(=O)NCc1ccc(N2CCN(c3ccc(OC)cc3)CC2)cc1 [Compound 110] | < 1 µM |
| CCc1nc2ccc(OC)cn2c1C(=O)NCc1ccc(N2CCN(c3ccc(OC)cc3)CC2)cc1 [Compound 111] | < 1 µM |
| CCc1nc2c(C(F)(F)F)cccn2c1C(=O)NCc1ccc(N2CCC(c3ccccc3)CC2)cc1 [Compound 112] | 1 to 20 µM (≈ 0.507 to 10.1 µg/mL) |
| CCc1nc2cc(Br)ccn2c1C(=O)NCc1ccc(N2CCC(c3ccccc3)CC2)cc1 [Compound 113] | < 1 µM |
| CCc1nc2ccc(F)cn2c1C(=O)NCc1ccc(N2CCC(c3ccc(C)cc3)CC2)cc1 [Compound 115] | < 1 µM |
| CCc1nc2cc(F)ccn2c1C(=O)NCc1ccc(N2CCN(c3ccc(OC(F)(F)F)cc3)CC2)cc1 [Compound 116] | < 1 µM |
| CCc1nc2c(OC)cccn2c1C(=O)NCc1ccc(N2CCC(c3ccc(OC(F)(F)F)cc3)CC2)cc1 [Compound 117] | 1 to 20 µM (≈ 0.553 to 11.1 µg/mL) |
| CCc1nc2ccc(OC)cn2c1C(=O)NCc1ccc(N2CCC(c3ccccc3)CC2)cc1 [Compound 118] | < 1 µM |
| CCc1nc2c(Cl)cccn2c1C(=O)NCc1ccc(N2CCC(c3ccc(C(F)(F)F)cc3)CC2)cc1 [Compound 119] | < 1 µM |
| CCc1nc2ccc(C(F)(F)F)cn2c1C(=O)NCc1ccc(N2CCC(c3ccc(OC)cc3)CC2)cc1 [Compound 120] | < 1 µM |
| CCc1nc2ccc(C(F)(F)F)cn2c1C(=O)NCc1ccc(N2CCN(c3ccc(Cl)cc3)CC2)cc1 [Compound 121] | < 1 µM |
| CCc1nc2ccc(C)cn2c1C(=O)NCc1ccc(N2CCC(c3ccc(Cl)cc3)CC2)cc1 [Compound 122] | < 1 µM |
| CCc1nc2ccc(OC)cn2c1C(=O)NCc1ccc(N2CCC(c3ccc(OC)cc3)CC2)cc1 [Compound 123] | < 1 µM |
| CCc1nc2cc(C(F)(F)F)ccn2c1C(=O)NCc1ccc(N2CCC(c3ccc(OC)cc3)CC2)cc1 [Compound 124] | < 1 µM |
| CCc1nc2c(OC)cccn2c1C(=O)NCc1ccc(N2CCC(c3ccc(C(F)(F)F)cc3)CC2)cc1 [Compound 125] | 1 to 20 µM (≈ 0.537 to 10.7 µg/mL) |
| CCc1nc2ccc(OC)cn2c1C(=O)NCc1ccc(N2CCC(c3ccc(C(F)(F)F)cc3)CC2)cc1 [Compound 126] | < 1 µM |
| CCc1nc2ccc(OC)cn2c1C(=O)NCc1ccc(N2CCC(c3ccc(C)cc3)CC2)cc1 [Compound 127] | < 1 µM |
| CCc1nc2ccc(OC)cn2c1C(=O)NCc1ccc(N2CCN(c3ccc(Cl)cc3)CC2)cc1 [Compound 128] | < 1 µM |
| CCc1nc2c(OC)cccn2c1C(=O)NCc1ccc(N2CCN(c3ccc(C(F)(F)F)cc3)CC2)cc1 [Compound 129] | 1 to 20 µM (≈ 0.538 to 10.8 µg/mL) |

| SMILES | MIC80 |
| --- | --- |
| CCc1nc2ccc(C(F)(F)F)cn2c1C(=O)NCc1ccc(N2CCN(c3ccc(C(F)(F)F)cc3)CC2)cc1 [Compound 130] | < 1 µM |
| CCc1nc2cc(Br)ccn2c1C(=O)NCc1ccc(N2CCC(c3ccc(C(F)(F)F)cc3)CC2)cc1 [Compound 132] | < 1 µM |
| CCc1nc2cc(Br)ccn2c1C(=O)NCc1ccc(N2CCC(c3ccc(F)cc3)CC2)cc1 [Compound 133] | < 1 µM |
| CCc1nc2cc(Br)ccn2c1C(=O)NCc1ccc(N2CCC(c3ccc(Cl)cc3)CC2)cc1 [Compound 134] | < 1 µM |
| CCc1nc2cc(Br)ccn2c1C(=O)NCc1ccc(N2CCN(c3ccc(Cl)cc3)CC2)cc1 [Compound 135] | < 1 µM |
| CCc1nc2ccc(Br)cn2c1C(=O)NCc1ccc(N2CCC(c3ccc(C(F)(F)F)cc3)CC2)cc1 [Compound 136] | < 1 µM |
| CCc1nc2cc(F)ccn2c1C(=O)NCc1ccc(N2CCC(c3ccc(F)cc3)CC2)cc1 [Compound 137] | < 1 µM |
| CCc1nc2ccccn2c1C(=O)NCc1ccc(N2CCC(c3ccc(Cl)cc3)CC2)cc1 [Compound 139] | < 1 µM |
| CCc1nc2ccc(C)cn2c1C(=O)NCc1ccc(N2CCC(c3ccc(C(F)(F)F)cc3)CC2)cc1 [Compound 140] | < 1 µM |
| CCc1nc2cc(C)ccn2c1C(=O)NCc1ccc(N2CCN(c3ccc(C)cc3)CC2)cc1 [Compound 141] | < 1 µM |
| CCc1nc2c(Br)cccn2c1C(=O)NCc1ccc(N2CCC(c3ccc(C(F)(F)F)cc3)CC2)cc1 [Compound 143] | 1 to 20 µM (≈ 0.585 to 11.7 µg/mL) |
| CCc1nc2c(C)cccn2c1C(=O)NCc1ccc(N2CCC(c3ccc(C)cc3)CC2)cc1 [Compound 144] | < 1 µM |
| CCc1nc2c(C)cccn2c1C(=O)NCc1ccc(N2CCC(c3ccc(C(F)(F)F)cc3)CC2)cc1 [Compound 145] | < 1 µM |
| CCc1nc2ccc(C(F)(F)F)cn2c1C(=O)NCc1ccc(N2CCC(c3ccc(C(F)(F)F)cc3)CC2)cc1 [Compound 146] | < 1 µM |
| CCc1nc2c(Cl)cccn2c1C(=O)NCc1ccc(N2CCC(c3ccc(C)cc3)CC2)cc1 [Compound 147] | < 1 µM |
| CCc1nc2c(F)cccn2c1C(=O)NCc1ccc(N2CCC(c3ccc(F)cc3)CC2)cc1 [Compound 148] | < 1 µM |
| CCc1nc2ccc(F)cn2c1C(=O)NCc1ccc(N2CCN(c3ccc(OC)cc3)CC2)cc1 [Compound 149] | < 1 µM |
| CCc1nc2ccc(F)cn2c1C(=O)NCc1ccc(N2CCC(c3ccc(OC)cc3)CC2)cc1 [Compound 150] | < 1 µM |
| CCc1nc2c(OC)cccn2c1C(=O)NCc1ccc(N2CCC(c3ccc(F)cc3)CC2)cc1 [Compound 151] | 1 to 20 µM (≈ 0.487 to 9.73 µg/mL) |
| CCc1nc2c(OC)cccn2c1C(=O)NCc1ccc(N2CCC(c3ccc(OC)cc3)CC2)cc1 [Compound 152] | 1 to 20 µM (≈ 0.499 to 9.97 µg/mL) |
| CCc1nc2c(C(F)(F)F)cccn2c1C(=O)NCc1ccc(N2CCC(c3ccc(OC(F)(F)F)cc3)CC2)cc1 [Compound 154] | 1 to 20 µM (≈ 0.591 to 11.8 µg/mL) |
| CCc1nc2cc(C)ccn2c1C(=O)NCc1ccc(N2CCC(c3ccc(OC)cc3)CC2)cc1 [Compound 155] | < 1 µM |
| CCc1nc2ccc(Br)cn2c1C(=O)NCc1ccc(N2CCN(c3ccc(C(F)(F)F)cc3)CC2)cc1 [Compound 156] | < 1 µM |
| CCc1nc2ccccn2c1C(=O)NCc1ccc(N2CCC(c3ccc(C)cc3)CC2)cc1 [Compound 157] | < 1 µM |
